Drawing on ChEMBL document CHEMBL5465560, “Selectivity Literature for EUbOPEN Chemogenomic Library” (2024), this text covers % of control, % of activity and % of engagement for six compounds.

Substitutions are numbered along the chain they refer to.

The target of experiment [1] is Leucine-rich repeat serine/threonine-protein kinase 2 (Homo sapiens, UniProt Q5S007). Conditions: at 10 µM.
Experiment [2] relates to T1, Receptor-type tyrosine-protein kinase FLT3 (Homo sapiens), P36888 [D835V].
T1 sequence (whole entry): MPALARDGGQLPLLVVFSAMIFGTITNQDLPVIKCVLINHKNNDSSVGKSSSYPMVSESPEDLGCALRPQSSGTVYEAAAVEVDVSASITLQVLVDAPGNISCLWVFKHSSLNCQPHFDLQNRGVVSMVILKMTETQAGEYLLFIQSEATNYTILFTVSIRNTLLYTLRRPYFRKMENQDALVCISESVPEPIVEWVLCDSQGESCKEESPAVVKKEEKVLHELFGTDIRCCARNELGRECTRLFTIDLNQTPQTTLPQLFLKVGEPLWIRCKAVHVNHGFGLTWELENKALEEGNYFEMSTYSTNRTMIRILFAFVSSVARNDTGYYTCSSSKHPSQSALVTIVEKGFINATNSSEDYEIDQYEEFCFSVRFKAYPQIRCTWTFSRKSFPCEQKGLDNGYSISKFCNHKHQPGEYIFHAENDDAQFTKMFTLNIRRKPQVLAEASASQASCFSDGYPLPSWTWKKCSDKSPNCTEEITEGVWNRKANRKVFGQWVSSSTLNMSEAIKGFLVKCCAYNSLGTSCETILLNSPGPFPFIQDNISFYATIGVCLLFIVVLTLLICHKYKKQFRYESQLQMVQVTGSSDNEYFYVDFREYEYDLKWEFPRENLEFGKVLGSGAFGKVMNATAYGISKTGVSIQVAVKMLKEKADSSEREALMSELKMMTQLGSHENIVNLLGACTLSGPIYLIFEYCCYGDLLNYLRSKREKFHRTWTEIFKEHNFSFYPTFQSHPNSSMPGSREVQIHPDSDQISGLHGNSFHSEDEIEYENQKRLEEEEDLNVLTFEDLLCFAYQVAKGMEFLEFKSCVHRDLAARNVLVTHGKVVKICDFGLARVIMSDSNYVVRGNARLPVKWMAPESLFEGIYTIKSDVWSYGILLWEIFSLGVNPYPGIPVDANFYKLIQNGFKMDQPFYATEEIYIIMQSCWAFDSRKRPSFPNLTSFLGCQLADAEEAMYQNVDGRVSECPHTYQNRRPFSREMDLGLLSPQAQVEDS
In words: (§1) Selectivity interaction (KinomeScan (DiscoverX)) EUB0001079a FLT3. As to conditions: at 1 µM.

The test system of experiment [3] is T2, Receptor-type tyrosine-protein kinase FLT3 (Homo sapiens), P36888 [K663Q].
T2 sequence (whole entry): T1 sequence (whole entry) with K663Q, V835D
Described as §1. As to conditions: at 1 µM.

The target in experiment [4] is Phosphatidylinositol 4,5-bisphosphate 3-kinase catalytic subunit alpha isoform (Homo sapiens) (UniProt P42336). In words: (§2) Selectivity interaction (KinomeScan (DiscoverX)) EUB0001079a PIK3CA. As to conditions: at 1 µM.
Experiment [5] concerns Phosphatidylinositol 4,5-bisphosphate 3-kinase catalytic subunit alpha isoform (Homo sapiens), P42336 [C420R]. The experiment is described as §2. Conditions: at 1 µM.
Experiment [6] deals with Phosphatidylinositol 4,5-bisphosphate 3-kinase catalytic subunit alpha isoform (Homo sapiens), P42336 [E542K]. The experiment is described as §2. Conditions: at 1 µM.
Experiment [7] has as its system Phosphatidylinositol 4,5-bisphosphate 3-kinase catalytic subunit alpha isoform (Homo sapiens), P42336 [E545A]. Described as §2. As to conditions: at 1 µM.
Experiment [8] concerns Phosphatidylinositol 4,5-bisphosphate 3-kinase catalytic subunit alpha isoform (Homo sapiens), P42336 [E545K]. The description is as §2. Conditions: at 1 µM.
Experiment [9] concerns Phosphatidylinositol 4,5-bisphosphate 3-kinase catalytic subunit alpha isoform (Homo sapiens), P42336 [H1047L]. The experiment is described as §2. As to conditions: at 1 µM.
For experiment [10], the system named is Phosphatidylinositol 4,5-bisphosphate 3-kinase catalytic subunit alpha isoform (Homo sapiens), P42336 [H1047Y]. Described as §2. Conditions: at 1 µM.
For experiment [11], the system named is Phosphatidylinositol 4,5-bisphosphate 3-kinase catalytic subunit alpha isoform (Homo sapiens), P42336 [I800L]. Described as §2. As to conditions: at 1 µM.
Experiment [12] relates to Phosphatidylinositol 4,5-bisphosphate 3-kinase catalytic subunit alpha isoform (Homo sapiens), P42336 [M1043I]. The description is as §2. Conditions: at 1 µM.
Phosphatidylinositol 4,5-bisphosphate 3-kinase catalytic subunit alpha isoform (Homo sapiens), P42336 [M1043I], sequence (P42336 whole entry M1043I, canonical isoform): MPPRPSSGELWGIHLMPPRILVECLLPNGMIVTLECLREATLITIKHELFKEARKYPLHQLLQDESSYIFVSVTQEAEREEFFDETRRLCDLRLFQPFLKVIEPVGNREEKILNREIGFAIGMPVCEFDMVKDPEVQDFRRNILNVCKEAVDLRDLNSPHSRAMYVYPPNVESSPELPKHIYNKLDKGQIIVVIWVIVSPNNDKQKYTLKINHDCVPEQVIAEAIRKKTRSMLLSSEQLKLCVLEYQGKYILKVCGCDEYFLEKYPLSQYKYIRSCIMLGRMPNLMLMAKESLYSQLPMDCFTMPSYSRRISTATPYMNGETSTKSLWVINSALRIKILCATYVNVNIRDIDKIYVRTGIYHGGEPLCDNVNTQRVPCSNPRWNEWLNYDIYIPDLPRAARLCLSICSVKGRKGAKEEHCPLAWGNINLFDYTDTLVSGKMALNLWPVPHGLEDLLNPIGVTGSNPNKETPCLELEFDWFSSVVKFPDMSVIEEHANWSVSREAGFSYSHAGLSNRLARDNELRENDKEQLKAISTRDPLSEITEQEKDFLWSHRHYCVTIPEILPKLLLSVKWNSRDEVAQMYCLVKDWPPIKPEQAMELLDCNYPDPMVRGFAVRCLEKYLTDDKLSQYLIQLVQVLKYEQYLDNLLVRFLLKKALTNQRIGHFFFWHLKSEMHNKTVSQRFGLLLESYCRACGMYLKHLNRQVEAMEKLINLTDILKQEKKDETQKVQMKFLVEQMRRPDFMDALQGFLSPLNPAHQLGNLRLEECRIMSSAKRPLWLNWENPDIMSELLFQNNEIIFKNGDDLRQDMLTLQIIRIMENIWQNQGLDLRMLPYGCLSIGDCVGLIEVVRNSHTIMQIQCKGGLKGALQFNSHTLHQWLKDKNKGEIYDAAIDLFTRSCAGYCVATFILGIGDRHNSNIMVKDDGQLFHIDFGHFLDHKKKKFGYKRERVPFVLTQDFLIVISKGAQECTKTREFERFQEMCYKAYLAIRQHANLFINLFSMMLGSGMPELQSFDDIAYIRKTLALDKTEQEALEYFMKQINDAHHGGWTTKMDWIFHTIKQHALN
Experiment [13] concerns the target Serine/threonine-protein kinase MRCK gamma (Homo sapiens) (UniProt Q6DT37). In words: Selectivity interaction (KinomeScan (DiscoverX)) EUB0001049a CDC42BPG. As to conditions: at 1 µM.
Experiment [14] has as its target N-lysine methyltransferase SMYD2 (Homo sapiens) (UniProt Q9NRG4). The experiment in a line: Selectivity interaction (Methyltransferase screen (radiometric assays, panel of 8 PRMTs, 21 protein lysine methyltransferases, 3 DNA methyltransferases, and one RNA methyltransferase)) EUB0000272b SMYD2.
Experiment [15] addresses RAC-beta serine/threonine-protein kinase (Homo sapiens) (UniProt P31751). In words: Selectivity interaction (KinomeScan (DiscoverX)) EUB0000607a AKT2. As to conditions: at 10 µM.
The target of experiment [16] is Serine/threonine-protein kinase 38 (Homo sapiens) (UniProt Q15208). In words: Selectivity interaction (Kinase panel (KiNativ target engagement assay in Jurkat cells)) EUB0001635a STK38. The format is cell-based. Conditions: Selectivity number of off-targets 0.0, Selectivity number of targets 233.0, Source Knowledge https://www.sciencedirect.com/science/article/pii/S2451945619300674?via%3Dihub, at 1 µM.

N-lysine methyltransferase SMYD2 (Homo sapiens), sequence (Q9NRG4 whole entry): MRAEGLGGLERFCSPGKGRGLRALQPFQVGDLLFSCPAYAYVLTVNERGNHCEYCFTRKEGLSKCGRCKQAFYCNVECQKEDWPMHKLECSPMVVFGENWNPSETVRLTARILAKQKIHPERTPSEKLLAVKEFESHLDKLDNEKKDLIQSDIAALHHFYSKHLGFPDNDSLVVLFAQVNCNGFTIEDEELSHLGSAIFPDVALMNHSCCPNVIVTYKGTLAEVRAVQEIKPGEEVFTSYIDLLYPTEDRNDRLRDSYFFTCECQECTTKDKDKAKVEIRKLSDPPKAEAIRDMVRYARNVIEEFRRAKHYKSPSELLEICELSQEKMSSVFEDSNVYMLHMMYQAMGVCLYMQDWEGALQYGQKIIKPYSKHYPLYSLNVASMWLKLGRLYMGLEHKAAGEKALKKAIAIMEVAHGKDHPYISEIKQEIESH
Phosphatidylinositol 4,5-bisphosphate 3-kinase catalytic subunit alpha isoform (Homo sapiens), P42336 [E545A], sequence (P42336 whole entry E545A, canonical isoform): as the sequence (P42336 whole entry M1043I, canonical isoform) above, with E545A, I1043M counted along it
Leucine-rich repeat serine/threonine-protein kinase 2, sequence (Q5S007 whole entry): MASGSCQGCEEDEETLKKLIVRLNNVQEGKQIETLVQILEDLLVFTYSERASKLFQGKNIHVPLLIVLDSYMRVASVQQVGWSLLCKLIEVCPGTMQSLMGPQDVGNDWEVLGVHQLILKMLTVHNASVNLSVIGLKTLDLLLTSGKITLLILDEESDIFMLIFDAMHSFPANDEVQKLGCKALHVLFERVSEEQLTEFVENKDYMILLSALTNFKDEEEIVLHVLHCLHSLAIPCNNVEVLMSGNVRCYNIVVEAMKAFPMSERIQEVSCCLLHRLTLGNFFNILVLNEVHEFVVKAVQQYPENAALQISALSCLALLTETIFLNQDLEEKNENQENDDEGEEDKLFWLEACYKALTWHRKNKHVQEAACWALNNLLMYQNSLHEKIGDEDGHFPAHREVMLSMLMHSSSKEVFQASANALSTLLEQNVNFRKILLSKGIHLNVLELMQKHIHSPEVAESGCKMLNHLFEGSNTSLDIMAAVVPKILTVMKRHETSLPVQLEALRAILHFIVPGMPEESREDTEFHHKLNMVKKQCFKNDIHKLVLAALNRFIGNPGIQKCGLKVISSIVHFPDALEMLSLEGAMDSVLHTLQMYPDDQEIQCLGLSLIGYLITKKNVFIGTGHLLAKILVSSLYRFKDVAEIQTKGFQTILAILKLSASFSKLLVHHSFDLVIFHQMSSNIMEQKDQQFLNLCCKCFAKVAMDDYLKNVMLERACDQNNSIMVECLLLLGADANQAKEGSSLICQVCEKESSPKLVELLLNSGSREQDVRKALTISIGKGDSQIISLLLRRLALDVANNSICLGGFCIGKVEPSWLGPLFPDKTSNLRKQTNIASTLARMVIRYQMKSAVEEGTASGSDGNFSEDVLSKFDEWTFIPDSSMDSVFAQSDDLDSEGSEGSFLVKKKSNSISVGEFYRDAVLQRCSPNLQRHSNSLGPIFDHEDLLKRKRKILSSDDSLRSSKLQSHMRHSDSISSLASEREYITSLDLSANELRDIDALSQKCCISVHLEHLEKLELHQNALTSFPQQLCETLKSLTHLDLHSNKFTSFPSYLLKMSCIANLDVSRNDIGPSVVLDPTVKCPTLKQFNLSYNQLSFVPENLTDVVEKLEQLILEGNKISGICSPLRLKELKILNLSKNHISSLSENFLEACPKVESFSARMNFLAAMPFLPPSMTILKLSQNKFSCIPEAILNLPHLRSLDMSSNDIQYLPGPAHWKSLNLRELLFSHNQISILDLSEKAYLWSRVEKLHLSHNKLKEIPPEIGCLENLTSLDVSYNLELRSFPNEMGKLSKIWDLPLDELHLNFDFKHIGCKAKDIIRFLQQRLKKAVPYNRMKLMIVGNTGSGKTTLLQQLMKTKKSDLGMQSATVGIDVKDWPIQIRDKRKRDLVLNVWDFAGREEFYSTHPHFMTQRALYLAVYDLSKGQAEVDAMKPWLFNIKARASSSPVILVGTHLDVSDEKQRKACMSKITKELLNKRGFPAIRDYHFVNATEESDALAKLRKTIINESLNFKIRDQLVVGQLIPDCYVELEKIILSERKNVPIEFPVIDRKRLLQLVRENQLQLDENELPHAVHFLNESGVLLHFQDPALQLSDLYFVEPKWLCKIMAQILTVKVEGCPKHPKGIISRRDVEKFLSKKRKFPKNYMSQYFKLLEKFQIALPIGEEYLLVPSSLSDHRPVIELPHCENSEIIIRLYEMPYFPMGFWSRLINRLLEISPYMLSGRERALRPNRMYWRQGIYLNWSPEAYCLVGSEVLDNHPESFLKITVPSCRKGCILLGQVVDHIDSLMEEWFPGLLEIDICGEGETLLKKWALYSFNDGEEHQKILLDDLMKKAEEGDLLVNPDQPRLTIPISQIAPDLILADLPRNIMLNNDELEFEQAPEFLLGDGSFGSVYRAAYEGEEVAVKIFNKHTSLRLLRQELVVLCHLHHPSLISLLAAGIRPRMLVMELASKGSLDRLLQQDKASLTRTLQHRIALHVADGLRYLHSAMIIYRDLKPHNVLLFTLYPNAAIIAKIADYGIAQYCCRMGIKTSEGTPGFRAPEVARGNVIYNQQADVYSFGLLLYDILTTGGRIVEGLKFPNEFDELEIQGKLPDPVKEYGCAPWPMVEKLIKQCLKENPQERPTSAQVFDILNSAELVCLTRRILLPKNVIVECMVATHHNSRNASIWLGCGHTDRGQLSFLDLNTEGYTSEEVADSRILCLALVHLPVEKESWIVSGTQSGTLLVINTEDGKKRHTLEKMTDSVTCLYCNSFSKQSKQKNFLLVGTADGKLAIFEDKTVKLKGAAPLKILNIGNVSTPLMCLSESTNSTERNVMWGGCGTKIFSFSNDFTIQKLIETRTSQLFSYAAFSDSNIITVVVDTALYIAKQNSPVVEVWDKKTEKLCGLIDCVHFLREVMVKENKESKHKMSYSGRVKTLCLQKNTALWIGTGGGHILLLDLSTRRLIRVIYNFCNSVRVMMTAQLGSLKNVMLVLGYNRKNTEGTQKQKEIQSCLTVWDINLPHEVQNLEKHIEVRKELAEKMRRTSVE

Compound `Cc1cc([C@@H](C)Nc2ccccc2C(=O)O)c2nc(N3CCOCC3)cc(=O)n2c1` [AZD-6482] yielded a % of control in experiment [1] of 100%.

As for `Nc1cnc(N2CCc3cc(S(=O)(=O)Nc4c(F)cc(Cl)cc4F)cc(N4CCCC4=O)c32)nc1` [TP-020n], the % of control in experiment [2] was determined as 100%; in [3], 97%; in [4], 76%; in experiment [5] it was 84%; in [6] it was 72%; in experiment [7] it was 100%. In addition, the % of control in experiment [8] turned out to be 100%; in experiment [9] it was 60%; in experiment [10], 100%; in experiment [11], 80%; in [12], 100%.

Regarding `COc1cc(Nc2nc(C)cc(-c3cnn4nc(OC)ccc34)n2)cc(C(F)(F)F)c1`, in experiment [13], the % of control is 89%.

Regarding `Cc1cc(C)cc([C@H]2c3cc(C)ccc3NC(=O)CN2C(=O)c2ccc(Br)s2)c1`, the % of activity in [14] (at 1 µM) and in [14] (at 10 µM) was 94.3% in each case.

In turn, `CNC(=O)Nc1ccc(-c2nc(N3CC4CCC(C3)O4)c3cnn(C4CCC5(CC4)OCCO5)c3n2)cc1` registered a % of control in experiment [15] of 100%.

As to `C=CC(=O)Nc1ccc(C(=O)Nc2[nH]nc3c2CN(C(=O)N[C@H](CN(C)C)c2ccccc2)C3(C)C)cc1`, the % of engagement in experiment [16] came out at 0.3%.
